Assay results from paper PMC5987162 (Biochimica et biophysica acta, 2018).
Read-outs that look alike come from different tables or passages of the source.

Columns and labels:
[1] = test system: hippocampal transcriptome; assay: RNA-Seq of hippocampus after acute THC versus vehicle; type: in vivo, mouse; conditions: for number of transcripts differentially expressed in the HIPP: 2 hours, 5% FDR
[2] = test system: CD1 female mouse brain lipidome; assay: Targeted brain lipidomics; type: in vivo; conditions: for magnitude class of change in PGE2 and PGF2α, HIPP: p < 0.05
spatial working memory = conditions: male C57 mice, 3 mg/kg, tested 30 minutes later; cited from earlier work
novel object recognition = conditions: 3 mg/kg THC, 24 hours after dosing; cited from earlier work
gene expression = conditions: microarray, out of 24,500 possible genes, acute THC; cited from earlier work
[3] = PND 50, 2 hours after 3 mg/kg THC i.p.
[4] = adult, 2 hours after 3 mg/kg THC i.p.
[5] = PND 35, 2 hours after 3 mg/kg THC i.p.
[6] = adult, THC vs vehicle, significant

11-OH-THC
rank of HIPP levels relative to other brain regions [3]: highest
rank of HIPP levels relative to other brain regions [4]: 5th

CCCCCc1cc(O)c2c(c1)OC(C)(C)[C@@H]1CCC(C)=C[C@@H]21 [THC, Δ^9-tetrahydrocannabinol]
brain area with highest levels [5]: HIPP
brain area with highest levels [3]: HIPP
brain area with highest levels [4]: HIPP
effect on FKBP5 message ([1]; HIPP of both age groups, 3 mg/kg, larger magnitude in adult): upregulated
effect on Cdkn1a transcript ([1]; HIPP of mice from both age groups): upregulated
number of genes affected in the same direction regardless of age ([1]; HIPP, PND 35 and adult): 31
number of shared transcripts significantly downregulated ([1]; HIPP, PND 35 and adult): 11
number of transcripts downregulated in the HIPP ([1]; PND 35): 48
number of transcripts upregulated in the HIPP ([1]; PND 35): 41
number of transcripts differentially expressed in the HIPP ([1]; PND 35, 3 mg/kg THC): 89
log2 fold change of Plekhf1 (largest upregulation) ([1]; PND 35 HIPP): 0.84
log2 fold change of kdr (most robust downregulation) ([1]; PND 35 HIPP): −0.73
number of transcript changes unique to this age group ([1]; PND 35 HIPP): 58
number of uniquely changed transcripts downregulated ([1]; PND 35 HIPP): 37
number of decreases in transcript expression in the HIPP ([1]; adult): 80
number of increases in transcript expression in the HIPP ([1]; adult): 109
log2 fold change of Plekhf1 (largest upregulation) ([1]; adult HIPP): 1.36
log2 fold change of cldn5 (most robust downregulation) ([1]; adult HIPP): −0.80
number of transcript changes unique to this age group ([1]; adult HIPP): 158
number of unique transcript changes that were decreases ([1]; adult HIPP): 69
number of unique transcript changes that were increases ([1]; adult HIPP): 89
effect on mRNA encoding the receptor for VEGF, Kdr ([1]; adult and PND 35 HIPP): significantly lowered
number of transcripts differentially expressed in the HIPP ([1]; adult, 3 mg/kg THC): 189
change in 2-AG in HYP ([2]; PND 35): decrease
change in N-oleoyl glycine in HYP ([2]; PND 35): increase
effect on AEA levels ([2]; PND 35): unaffected
number of brain areas with reduced 2-AG levels ([2]; PND 35): 2
number of decreases in lipid concentration, all 8 brain areas ([2]; PND 35): 10
number of increases in lipid concentration, all 8 brain areas ([2]; PND 35): 23
number of lipids decreased in HIPP ([2]; PND 35): 1
number of lipids increased in HIPP ([2]; PND 35): 6
magnitude of change of PGE2 in the HIPP (THC mean divided by vehicle mean) ([2]; PND 35, 3 mg/kg i.p., 2 hours): 1.13
magnitude class of change in PGE2 and PGF2α, HIPP ([2]; PND 35, THC vs vehicle): 1 up arrow
magnitude class of change in A-Taur, THAL ([2]; PND 35, THC vs vehicle, significant): 1 up arrow
number of significant changes in lipid concentrations across all 8 brain areas ([2]; PND 35, out of 656 possible changes): 33
average level of PGE2 in the HIPP ([2]; PND 35 THC mice, 3 mg/kg i.p., 2 hours): 6.68×10^−10 moles per gram
change in levels of PGE2 and PGF2α in the HIPP ([2]; PND 35 mouse): increase
change in AEA and its structural analogs the NAEs in STR ([2]; PND 50): significantly increased
change in PGF2α in HYP (only change in that region) ([2]; PND 50): increase
number of brain regions with reduced 2-AG levels ([2]; PND 50): 4
number of brain regions with reduced AEA levels ([2]; PND 50): 2
number of decreases in lipid concentration, all 8 brain areas ([2]; PND 50): 28
number of increases in lipid concentration, all 8 brain areas ([2]; PND 50): 30
number of lipids decreased in CER ([2]; PND 50): 8
number of lipids increased in CER ([2]; PND 50): 5
number of lipids significantly modified, all 8 brain areas ([2]; PND 50): 58
change in levels of PGE2 and PGF2α in the HIPP ([2]; PND 50 mouse): no change
change in NAEs in all brain areas except the STR and CTX ([2]; adult): significantly decreased
change in levels of PGE2 and PGF2α in the HIPP ([2]; adult): decrease
number of brain regions with reduced 2-AG levels ([2]; adult): 4
number of brain regions with reduced AEA levels ([2]; adult): 6
number of changes in lipid levels in CER (all decreases) ([2]; adult): 14
number of decreases in lipid concentration, all 8 brain regions ([2]; adult): 99
number of increases in lipid concentration, all 8 brain regions ([2]; adult): 17
number of lipids affected in STR ([2]; adult): 3
number of lipids altered in STEM ([2]; adult): 28
number of lipids changing in concentration across the 8 brain regions ([2]; adult): 116
number of lipids decreased in STEM ([2]; adult): 24
number of lipids decreased in STR ([2]; adult): 2
number of lipids increased in STEM ([2]; adult): 4
number of lipids increased in STR ([2]; adult): 1
mean level of AEA in the HIPP ([2]; adult THC mice, 3 mg/kg i.p., 2 hours): 4.76×10^−11 moles per gram
AEA in the HIPP, THC mean divided by vehicle mean ([2]; adult, 3 mg/kg i.p., 2 hours): 0.87
fold decrease of AEA in the HIPP (reciprocal of THC/vehicle) ([2]; adult, 3 mg/kg i.p., 2 hours): 1.15
magnitude class of change in 2-OG, MID ([2]; adult, THC vs vehicle): 2 down arrows
magnitude class of change in PGE2 and PGF2α, HIPP ([2]; adult, THC vs vehicle): 1 down arrow
magnitude class of change in AEA, THAL [2, 6]: 1 down arrow
magnitude class of change in SEA, THAL [2, 6]: 3 down arrows
magnitude class of change in A-Taur, THAL ([2]; adult, THC vs vehicle, trending (p < 0.1)): 1 up arrow
magnitude class of change in 2-AG, MID ([2]; all 3 age groups, THC vs vehicle): 1 down arrow
effect on spatial working memory in the Morris water maze (spatial working memory): significantly disrupted spatial working memory
effect on novel object recognition (novel object recognition): impaired
number of genes with altered expression (gene expression): 28

(±)-11-nor-9-carboxyTHC
rank of HIPP levels relative to other brain regions [5]: highest
